# From patent US20130303507A1 (Novartis AG, priority 2011, published 2013)
# pIC50: −log10 of the molar value.
# Biological target: Cdk9/cyclinT1 (Homo sapiens, UniProt P50750)
# Experiment: Cdk9/cyclinT1 IMAP protocol (fluorescence polarization)
# Conditions: IC-50, CDK9; lower limit of assay 0.0005 micromolar
# Cdk9/cyclinT1, sequence (P50750 whole entry): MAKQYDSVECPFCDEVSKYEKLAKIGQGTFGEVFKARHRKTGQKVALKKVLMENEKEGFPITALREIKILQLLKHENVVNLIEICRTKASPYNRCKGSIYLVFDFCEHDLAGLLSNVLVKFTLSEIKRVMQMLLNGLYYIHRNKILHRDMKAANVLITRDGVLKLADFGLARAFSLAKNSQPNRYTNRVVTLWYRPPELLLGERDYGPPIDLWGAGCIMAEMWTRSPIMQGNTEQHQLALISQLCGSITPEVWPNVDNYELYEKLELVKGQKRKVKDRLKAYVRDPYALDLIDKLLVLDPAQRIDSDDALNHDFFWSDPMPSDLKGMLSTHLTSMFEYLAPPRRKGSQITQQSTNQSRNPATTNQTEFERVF
# Cdk9/cyclinT1, sequence (O60563 whole entry partner): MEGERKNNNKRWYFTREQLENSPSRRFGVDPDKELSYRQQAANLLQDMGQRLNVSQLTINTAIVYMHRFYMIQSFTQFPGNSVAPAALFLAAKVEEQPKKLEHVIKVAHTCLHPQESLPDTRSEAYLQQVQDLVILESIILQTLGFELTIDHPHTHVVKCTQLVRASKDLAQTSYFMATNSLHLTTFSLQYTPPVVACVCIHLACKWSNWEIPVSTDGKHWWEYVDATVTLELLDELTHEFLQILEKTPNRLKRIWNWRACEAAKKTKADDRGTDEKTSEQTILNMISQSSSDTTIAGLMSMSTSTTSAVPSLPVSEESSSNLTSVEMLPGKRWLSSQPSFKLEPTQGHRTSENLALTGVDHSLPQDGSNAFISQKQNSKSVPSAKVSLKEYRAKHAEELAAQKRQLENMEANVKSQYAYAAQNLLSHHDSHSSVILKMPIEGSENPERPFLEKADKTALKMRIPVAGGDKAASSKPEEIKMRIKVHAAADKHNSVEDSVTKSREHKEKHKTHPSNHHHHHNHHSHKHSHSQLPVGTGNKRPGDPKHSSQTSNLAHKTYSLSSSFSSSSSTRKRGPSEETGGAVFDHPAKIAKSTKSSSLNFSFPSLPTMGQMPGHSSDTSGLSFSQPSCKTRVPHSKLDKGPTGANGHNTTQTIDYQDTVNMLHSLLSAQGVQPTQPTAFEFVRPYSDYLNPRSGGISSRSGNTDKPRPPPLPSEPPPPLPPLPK
row,pIC50,SMILES
1,7.70,"CO[C@@H]1CC[C@H](Nc2cc(-c3cccc(NCC4(C#N)CCOCC4)n3)c(Cl)cn2)C[C@H]1N [Compound 438, 4-(((2′-(((1S,3R,4R)-3-amino-4-methoxycyclohexyl)amino)-5′-chloro-[2,4′-bipyridin]-6-yl)amino)methyl)tetrahydro-2H-pyran-4-carbonitrile]"
2,8.26,"COC[C@]1(O)CC[C@H](Nc2cc(-c3cccc(NCC4(C#N)CCOCC4)n3)c(Cl)cn2)CC1 [Compound 449, 4-(((5′-chloro-2′-((trans-4-hydroxy-4-(methoxymethyl)cyclohexyl)amino)-[2,4′-bipyridin]-6-yl)amino)methyl)tetrahydro-2H-pyran-4-carbonitrile]"
3,> 9.30,"CN(C)C(=O)CN[C@H]1CC[C@H](Nc2cc(-c3cccc(NCC4(C#N)CCOCC4)n3)c(Cl)cn2)CC1 [Compound 423, 2-((trans-4-((5′-chloro-6-(((4-cyanotetrahydro-2H-pyran-4-yl)methyl)amino)-[2,4′-bipyridin]-2′-yl)amino)cyclohexyl)amino)-N,N-dimethylacetamide]"
4,8.70,"COCC(C)(C)N[C@H]1CC[C@H](Nc2cc(-c3cccc(NCC4(C#N)CCOCC4)n3)c(Cl)cn2)CC1 [Compound 454, 4-(((5′-chloro-2′-((trans-4-((1-methoxy-2-methylpropan-2-yl)amino)cyclohexyl)amino)-[2,4′-bipyridin]-6-yl)amino)methyl)tetrahydro-2H-pyran-4-carbonitrile]"
5,> 9.30,"CNC(=O)CN[C@H]1CC[C@H](Nc2cc(-c3cccc(NCC4(C#N)CCOCC4)n3)c(Cl)cn2)CC1 [Compound 420, 2-((trans-4-((5′-chloro-6-(((4-cyanotetrahydro-2H-pyran-4-yl)methyl)amino)-[2,4′-bipyridin]-2′-yl)amino)cyclohexyl)amino)-N-methylacetamide]"
6,> 9.30,"N#CC1(CNc2cccc(-c3cc(N[C@H]4CC[C@H](NC[C@H](O)C(F)(F)F)CC4)ncc3Cl)n2)CCOCC1 [Compound 490, 4-(((5′-chloro-2′-((trans-4-(((S)-3,3,3-trifluoro-2-hydroxypropyl)amino)cyclohexyl)amino)-[2,4′-bipyridin]-6-yl)amino)methyl)tetrahydro-2H-pyran-4-carbonitrile]"
7,8.82,"N[C@H]1CC[C@H](Nc2cc(-c3cccc(NCC4(O)CCOCC4)n3)c(Cl)cn2)CC1 [Compound 450, 4-(((2′-((trans-4-aminocyclohexyl)amino)-5′-chloro-[2,4′-bipyridin]-6-yl)amino)methyl)tetrahydro-2H-pyran-4-ol]"
8,8.15,"COC[C@H](C)N[C@H]1CC[C@H](Nc2cc(-c3cccc(NCC4(O)CCOCC4)n3)c(Cl)cn2)CC1 [Compound 451, 4-(((5′-chloro-2′-((trans-4-(((S)-1-methoxypropan-2-yl)amino)cyclohexyl)amino)-[2,4′-bipyridin]-6-yl)amino)methyl)tetrahydro-2H-pyran-4-ol]"
9,9.22,CC(C)N[C@@H]1CC[C@@H](Nc2cc(-c3cccc(NCC4(C#N)CCOCC4)n3)c(Cl)cn2)C1 (relative stereo) [Example 408]
10,> 9.30,"N#CC1(CNc2cccc(-c3cc(N[C@H]4CC[C@H](N[C@H]5CCOC5)CC4)ncc3Cl)n2)CCOCC1 [Compound 469, 4-(((5′-chloro-2′-((trans-4-(((S)-tetrahydrofuran-3-yl)amino)cyclohexyl)amino)-[2,4′-bipyridin]-6-yl)amino)methyl)tetrahydro-2H-pyran-4-carbonitrile]"
11,≥ 9.30,"COC[C@H](C)N[C@H]1CC[C@H](Nc2cc(-c3cccc(NCC4(C#N)CCOCC4)n3)c(Cl)cn2)CC1 [Compound 459, 4-(((5′-chloro-2′-((trans-4-(((S)-1-methoxypropan-2-yl)amino)cyclohexyl)amino)-[2,4′-bipyridin]-6-yl)amino)methyl)tetrahydro-2H-pyran-4-carbonitrile]"
12,> 9.30,"N#CC1(CNc2cccc(-c3cc(N[C@H]4CC[C@H](CN)CC4)ncc3Cl)n2)CCOCC1 [Compound 493, 4-(((2′-((trans-4-(aminomethyl)cyclohexyl)amino)-5′-chloro-[2,4′-bipyridin]-6-yl)amino)methyl)tetrahydro-2H-pyran-4-carbonitrile]"
13,7.38,"COC[C@]1(O)CC[C@@H](Nc2cc(-c3cccc(NCC4CCOCC4)n3)c(Cl)cn2)CC1 [Compound 447, Cis-4-((5′-chloro-6-(((tetrahydro-2H-pyran-4-yl)methyl)amino)-[2,4′-bipyridin]-2′-yl)amino)-1-(methoxymethyl)cyclohexanol]"

# Continued, compound first:
row,SMILES,pIC50
1,"COCCN[C@@H]1CC[C@@H](Nc2cc(-c3cccc(NCC4(C#N)CCOCC4)n3)c(Cl)cn2)C1 [Compound 409, 4-(((5′-chloro-2′-(((1R,3R)-3-((2-methoxyethyl)amino)cyclopentyl)amino)-[2,4′-bipyridin]-6-yl)amino)methyl)tetrahydro-2H-pyran-4-carbonitrile]",9.22
2,"N#CC1(CNc2cccc(-c3cc(N[C@H]4CC[C@H](NCCC(F)(F)F)CC4)ncc3Cl)n2)CCOCC1 [Compound 433, 4-(((5′-chloro-2′-((trans-4-((3,3,3-trifluoropropyl)amino)cyclohexyl)amino)-[2,4′-bipyridin]-6-yl)amino)methyl)tetrahydro-2H-pyran-4-carbonitrile]",9.22
3,"CC(O)(C(=O)N[C@H]1CC[C@H](Nc2cc(-c3cccc(NCC4(C#N)CCOCC4)n3)c(Cl)cn2)CC1)C(F)(F)F (stereo partly drawn) [Compound 431, N-(trans-4-((5′-chloro-6-(((4-cyanotetrahydro-2H-pyran-4-yl)methyl)amino)-[2,4′-bipyridin]-2′-yl)amino)cyclohexyl)-3,3,3-trifluoro-2-hydroxy-2-methylpropanamide]",8.77
4,"N#CC1(CNc2cccc(-c3cc(N[C@H]4CC[C@@H](N5CCNC(=O)C5)CC4)ncc3Cl)n2)CCOCC1 [Compound 418, 4-(((5′-chloro-2′-((cis-4-(3-oxopiperazin-1-yl)cyclohexyl)amino)-[2,4′-bipyridin]-6-yl)amino)methyl)tetrahydro-2H-pyran-4-carbonitrile]",8.07
5,"N#CCCN[C@H]1CC[C@H](Nc2cc(-c3cccc(NCC4CCOCC4)n3)c(Cl)cn2)CC1 [Compound 444, 3-((trans-4-((5′-chloro-6-(((tetrahydro-2H-pyran-4-yl)methyl)amino)-[2,4′-bipyridin]-2′-yl)amino)cyclohexyl)amino) propanenitrile]",8.62
6,"N#CC1(CNc2cccc(-c3cc(N[C@H]4CC[C@H](CNc5nc6ccccc6o5)CC4)ncc3Cl)n2)CCOCC1 [Compound 504, 4-(((2′-((trans-4-((benzo[d]oxazol-2-ylamino)methyl)cyclohexyl)amino)-5′-chloro-[2,4′-bipyridin]-6-yl)amino)methyl)tetrahydro-2H-pyran-4-carbonitrile]",9.00
7,"COCCN(CCOC)[C@H]1CC[C@H](Nc2cc(-c3cccc(NCC4(C#N)CCOCC4)n3)c(Cl)cn2)CC1 [Compound 446, 4-(((2′-((trans-4-(bis(2-methoxyethyl)amino)cyclohexyl)amino)-5′-chloro-[2,4′-bipyridin]-6-yl)amino)methyl)tetrahydro-2H-pyran-4-carbonitrile]",> 9.30
8,"COC[C@H](C)N[C@H]1CC[C@H](Nc2cc(-c3ccc(F)c(NCC4(C#N)CCOCC4)n3)c(Cl)cn2)CC1 [Compound 458, 4-(((5′-chloro-5-fluoro-2′-((trans-4-(((S)-1-methoxypropan-2-yl)amino)cyclohexyl)amino)-[2,4′-bipyridin]-6-yl)amino)methyl)tetrahydro-2H-pyran-4-carbonitrile]",> 9.30
9,"COCCN[C@H]1CC[C@H](Nc2cc(-c3cccc(NCC4(C#N)CCOCC4)n3)c(F)cn2)CC1 [Compound 474, 4-(((5′-fluoro-2′-((trans-4-((2-methoxyethyl)amino)cyclohexyl)amino)-[2,4′-bipyridin]-6-yl)amino)methyl)tetrahydro-2H-pyran-4-carbonitrile]",> 9.30
10,N#CC1(CNc2cccc(-c3cc(NC4CNC4)ncc3Cl)n2)CCOCC1 [Example 401],7.09
11,"CO[C@H]1CCN([C@H]2CC[C@@H](Nc3cc(-c4cccc(NCC5(C#N)CCOCC5)n4)c(Cl)cn3)CC2)C1 [Compound 476, 4-(((5′-chloro-2′-((cis-4-((S)-3-methoxypyrrolidin-1-yl)cyclohexyl)amino)-[2,4′-bipyridin]-6-yl)amino)methyl)tetrahydro-2H-pyran-4-carbonitrile]",8.27
12,"COCCN[C@H]1CC[C@H](Nc2cc(-c3cccc(NCC4(C#N)CC4)n3)c(F)cn2)CC1 [Compound 488, 1-(((5′-fluoro-2′-((trans-4-((2-methoxyethyl)amino)cyclohexyl)amino)-[2,4′-bipyridin]-6-yl)amino)methyl)cyclopropane-carbonitrile]",> 9.30
13,"C[C@@H]1COCCN1[C@H]1CC[C@H](Nc2cc(-c3cccc(NCC4(C#N)CCOCC4)n3)c(Cl)cn2)CC1 [Compound 503, 4-(((5′-chloro-2′-((trans-4-((R)-3-methylmorpholino)cyclohexyl)amino)-[2,4′-bipyridin]-6-yl)amino)methyl)tetrahydro-2H-pyran-4-carbonitrile]",8.59
14,"N#CC1(CNc2cccc(-c3cc(N[C@H]4CC[C@H](CNc5cc(Cl)ncn5)CC4)ncc3Cl)n2)CCOCC1 [Compound 505, 4-(((5′-chloro-2′-((trans-4-(((6-chloropyrimidin-4-yl)amino)methyl)cyclohexyl)amino)-[2,4′-bipyridin]-6-yl)amino)methyl)tetrahydro-2H-pyran-4-carbonitrile]",≥ 9.30
15,"CN(C)C(=O)CN(CC(=O)N(C)C)[C@H]1CC[C@H](Nc2cc(-c3cccc(NCC4(C#N)CCOCC4)n3)c(Cl)cn2)CC1 [Compound 421, 2,2′-((trans-4-((5′-chloro-6-(((4-cyanotetrahydro-2H-pyran-4-yl)methyl)amino)-[2,4′-bipyridin]-2′-yl)amino)cyclohexyl)azanediyl) bis(N,N-dimethylacetamide)]",8.57
16,"COC[C@H](C)N[C@H]1CC[C@H](Nc2cc(-c3ccc(F)c(NC[C@H]4CCOC(C)(C)C4)n3)c(Cl)cn2)CC1 [Compound 463, 5′-chloro-N6-(((S)-2,2-dimethyltetrahydro-2H-pyran-4-yl)methyl)-5-fluoro-N2′-(trans-4-(((S)-1-methoxypropan-2-yl)amino)cyclohexyl)-[2,4′-bipyridine]-2′,6-diamine]",8.72
